The numbers were not newly measured in patent US4127522A, “Novel triacontapeptides, intermediates therefor and pharmaceutical compositions and methods employing said triacontapeptides” (priority 1977, dated 1978), which cites them from elsewhere.

The subject of data set [1] is partially purified brain opiate receptor sites. The conditions noted are these: natural peptide; Bradbury et al.
The conditions of data set [2]: injected directly into the brain of the rat; Belluzzi et al.

For the substance “H-Tyr-Gly-Gly-Phe-Met-OH [methionine enkephalin]”, the “binding to partially purified brain opiate receptor sites” value in data set [1] is “binds stereo-specifically”. Besides, in the data set with opiate activity, the “activity in bioassays for opiate activity” value is “very active”. Moreover, the analgesic activity entry in data set [2] is “only weak analgesic agent of short duration”.
